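Five concentrations, 48 hours, 96-well plates. GI50 marks 50% less growth.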 Active and inactive are the calls of the source. No stated cut-off is given here; in the data, active = GI50 up to about 1.1 µM and inactive = higher.
Columns and labels:
Test in all cases: NCI anticancer screen, dose series, 48 h
786-0 = test system: 786-0
HOP-62 = test system: HOP-62
MDA-N = test system: MDA-N
SK-MEL-5 = test system: SK-MEL-5
OVCAR-3 = test system: OVCAR-3
DU-145 = test system: DU-145
SNB-19 = test system: SNB-19
ACHN = test system: ACHN
NCI-H23 = test system: NCI-H23
SN12C = test system: SN12C
SK-MEL-28 = test system: SK-MEL-28
SW-620 = test system: SW-620
SK-MEL-2 = test system: SK-MEL-2
HCT-15 = test system: HCT-15
PC-3 = test system: PC-3
CCRF-CEM = test system: CCRF-CEM
RXF 393 = test system: RXF 393
HL-60 = test system: HL-60
MCF7 = test system: MCF7

| SMILES | GI50 (786-0) | GI50 (HOP-62) | GI50 (MDA-N) | GI50 (SK-MEL-5) | GI50 (OVCAR-3) | GI50 (DU-145) | GI50 (SNB-19) | GI50 (ACHN) | GI50 (NCI-H23) | GI50 (SN12C) | GI50 (SK-MEL-28) | GI50 (SW-620) | GI50 (SK-MEL-2) | GI50 (HCT-15) [µM] | GI50 (PC-3) | GI50 (CCRF-CEM) | GI50 (RXF 393) | GI50 (HL-60) | GI50 (MCF7) |
| --- | --- | --- | --- | --- | --- | --- | --- | --- | --- | --- | --- | --- | --- | --- | --- | --- | --- | --- | --- |
| COc1cccc(/C=C2\CCCCCC2=O)c1 | > 100 µM (inactive) | > 100 µM (inactive) | > 100 µM (inactive) | 70.1 µM (inactive) | > 100 µM (inactive) | > 100 µM (inactive) | 19.7 µM (inactive) | > 100 µM (inactive) | > 100 µM (inactive) | > 100 µM (inactive) | > 100 µM (inactive) | > 100 µM (inactive) | > 100 µM (inactive) | > 100 | > 100 µM (inactive) | – | – | – | – |
| O=C(N/C(=C\c1cccc([N+](=O)[O-])c1)c1nc2c3c(ccc2[nH]1)C(=O)c1ccccc1C3=O)c1ccccc1 | 26.1 µM (inactive) | 37.8 µM (inactive) | – | 31.2 µM (inactive) | 49.1 µM (inactive) | – | 41.4 µM (inactive) | 16.6 µM (inactive) | 30.3 µM (inactive) | 28 µM (inactive) | 19.9 µM (inactive) | 45.5 µM (inactive) | 35 µM (inactive) | 15 | – | – | – | – | – |
| C=C1C(=O)OC2C=C(CCC(C)=O)C(C)C(OC(C)=O)CC12 (centres undefined) | 9.68 µM (inactive) | > 10 µM (inactive) | – | – | 12.7 µM (inactive) | – | 17.6 µM (inactive) | 6.84 µM (inactive) | – | 15.7 µM (inactive) | 8.26 µM (inactive) | 0.313 µM (active) | 14.2 µM (inactive) | 6.11 | – | 2.6 µM (inactive) | 2.41 µM (inactive) | 3.33 µM (inactive) | – |
| COc1ccc2c(=O)c3ccoc3[nH]c2c1 | > 100 µM (inactive) | > 100 µM (inactive) | – | > 100 µM (inactive) | – | > 100 µM (inactive) | > 100 µM (inactive) | > 100 µM (inactive) | > 100 µM (inactive) | – | > 100 µM (inactive) | > 100 µM (inactive) | > 100 µM (inactive) | > 100 | > 100 µM (inactive) | > 100 µM (inactive) | > 100 µM (inactive) | > 100 µM (inactive) | > 100 µM (inactive) |
| COc1ccc2c(c1)c(=O)c1c(NCCN(C)C)ccc3nnn2c31 | 1.71 µM (inactive) | 2.82 µM (inactive) | – | 3.17 µM (inactive) | 4.24 µM (inactive) | – | 3.52 µM (inactive) | 2.4 µM (inactive) | 2.68 µM (inactive) | 2.49 µM (inactive) | 5.78 µM (inactive) | 0.7 µM (active) | 6.31 µM (inactive) | 3.82 | – | 0.918 µM (active) | 0.0272 µM (active) | 1.82 µM (inactive) | – |
| COC(=O)c1c(O)c2c(c3c1OC(C)(C)CC3)OC(C)(C)CC2 | 16.8 µM (inactive) | 21 µM (inactive) | 22.1 µM (inactive) | 15 µM (inactive) | 20 µM (inactive) | 24.5 µM (inactive) | 18.2 µM (inactive) | 18 µM (inactive) | 20.1 µM (inactive) | 16 µM (inactive) | 26.6 µM (inactive) | 17.5 µM (inactive) | – | 21.2 | 17 µM (inactive) | 23 µM (inactive) | – | 15.1 µM (inactive) | 18.2 µM (inactive) |
| COc1cc(/C=N/c2ccccn2)cc(OC)c1OC | > 100 µM (inactive) | > 100 µM (inactive) | 28.3 µM (inactive) | > 93.1 µM (inactive) | > 100 µM (inactive) | > 100 µM (inactive) | 80.5 µM (inactive) | > 100 µM (inactive) | > 100 µM (inactive) | > 100 µM (inactive) | > 86.9 µM (inactive) | > 100 µM (inactive) | > 100 µM (inactive) | > 82.6 | – | > 100 µM (inactive) | 58.7 µM (inactive) | 1.87 µM (inactive) | 54.5 µM (inactive) |
| CC(C)NC(=O)OCc1c(COC(=O)NC(C)C)c(-c2ccc[n+](COC(=O)C3CC3)c2)n2c1CCC2 | 27 µM (inactive) | 49.1 µM (inactive) | – | > 100 µM (inactive) | > 100 µM (inactive) | 37.6 µM (inactive) | > 100 µM (inactive) | 20 µM (inactive) | 29.6 µM (inactive) | 48.1 µM (inactive) | > 100 µM (inactive) | > 100 µM (inactive) | 57.1 µM (inactive) | 87.3 | 50.5 µM (inactive) | 30.4 µM (inactive) | 34.2 µM (inactive) | 29.6 µM (inactive) | 49.5 µM (inactive) |
| CC(C)(C)OC(=O)C(C#N)C(=O)c1ccc(C(=O)O)[nH]1 (centres undefined) | 51.9 µM (inactive) | – | 40.4 µM (inactive) | 31 µM (inactive) | 29.3 µM (inactive) | 48.2 µM (inactive) | 41.5 µM (inactive) | 32.2 µM (inactive) | 36.3 µM (inactive) | 43.1 µM (inactive) | 62.2 µM (inactive) | 34.9 µM (inactive) | 23.6 µM (inactive) | 23.2 | 33.7 µM (inactive) | 15 µM (inactive) | – | 21.7 µM (inactive) | – |
| CCOC(=O)C1S/C(=N\C(=N)N[N+](=O)[O-])N=C1C (centres undefined) | > 100 µM (inactive) | > 100 µM (inactive) | – | – | > 100 µM (inactive) | – | > 100 µM (inactive) | > 100 µM (inactive) | > 100 µM (inactive) | > 100 µM (inactive) | > 100 µM (inactive) | > 100 µM (inactive) | > 100 µM (inactive) | > 100 | – | – | > 100 µM (inactive) | > 100 µM (inactive) | – |
| O=C1CS/C(=N/N=C/c2cn(Cc3ccc(Cl)cc3Cl)c3ccccc23)N1 | 22.4 µM (inactive) | 27.6 µM (inactive) | – | 35.6 µM (inactive) | 59 µM (inactive) | 53.6 µM (inactive) | 35.9 µM (inactive) | 53.7 µM (inactive) | 58.3 µM (inactive) | 19.5 µM (inactive) | 50.4 µM (inactive) | 27.5 µM (inactive) | 23.6 µM (inactive) | 37.3 | 19.6 µM (inactive) | 15.8 µM (inactive) | 24.9 µM (inactive) | > 100 µM (inactive) | 18.5 µM (inactive) |
| NC(=O)c1ccc(/N=N/O)nc1 | > 100 µM (inactive) | > 100 µM (inactive) | > 100 µM (inactive) | > 100 µM (inactive) | > 100 µM (inactive) | > 100 µM (inactive) | > 100 µM (inactive) | > 100 µM (inactive) | > 100 µM (inactive) | > 100 µM (inactive) | > 100 µM (inactive) | > 100 µM (inactive) | – | > 100 | > 100 µM (inactive) | > 100 µM (inactive) | – | > 100 µM (inactive) | > 100 µM (inactive) |
| N=C(N)N/N=C/c1c(-c2ccc(Cl)c([N+](=O)[O-])c2)nc2sccn12 | 1.73 µM (inactive) | 1.85 µM (inactive) | – | 1.73 µM (inactive) | 1.34 µM (inactive) | 1.78 µM (inactive) | 1.31 µM (inactive) | 1.71 µM (inactive) | 1.85 µM (inactive) | 1.82 µM (inactive) | 4.08 µM (inactive) | 1.53 µM (inactive) | 1.85 µM (inactive) | 2.21 | 1.65 µM (inactive) | 1.41 µM (inactive) | 1.22 µM (inactive) | 1.96 µM (inactive) | 1.37 µM (inactive) |
| CC1=C2CC3=C(C)C(=O)O[C@H]3C[C@@H](C)[C@@H]2CC1 [AMERICANOLIDE D] | > 100 µM (inactive) | – | – | 91.8 µM (inactive) | > 100 µM (inactive) | – | > 100 µM (inactive) | > 100 µM (inactive) | > 100 µM (inactive) | – | > 100 µM (inactive) | > 100 µM (inactive) | > 100 µM (inactive) | > 100 | > 100 µM (inactive) | 76.2 µM (inactive) | – | 80.5 µM (inactive) | – |
| COc1c(OC)c(OC)c(-c2cc(=O)c3c(OC)c(OC)c(OC)c(OC)c3o2)c(OC)c1OC | 21.5 µM (inactive) | 81.8 µM (inactive) | 38 µM (inactive) | 24.2 µM (inactive) | 16.3 µM (inactive) | 62.5 µM (inactive) | 51.9 µM (inactive) | 32.7 µM (inactive) | 22.2 µM (inactive) | 50.5 µM (inactive) | 90.2 µM (inactive) | 30 µM (inactive) | 56.6 µM (inactive) | 26.7 | – | 34 µM (inactive) | 27.3 µM (inactive) | 37.2 µM (inactive) | – |
| COc1cccc(N2C(=O)CSC2c2cc(OC)c(OC)c(OC)c2)c1 (centres undefined) | 28.9 µM (inactive) | – | 3.95 µM (inactive) | 19.8 µM (inactive) | 20.7 µM (inactive) | 12 µM (inactive) | 23.1 µM (inactive) | 57.7 µM (inactive) | 29.2 µM (inactive) | 44.1 µM (inactive) | 62.2 µM (inactive) | 39.7 µM (inactive) | > 100 µM (inactive) | 20 | 55.1 µM (inactive) | 19.1 µM (inactive) | – | 31.7 µM (inactive) | 19.4 µM (inactive) |
| Cc1c(C)c2c(c(N)c1C#N)C(=O)N(O)C2=O | > 100 µM (inactive) | – | – | > 100 µM (inactive) | > 100 µM (inactive) | > 100 µM (inactive) | > 100 µM (inactive) | > 100 µM (inactive) | > 100 µM (inactive) | > 100 µM (inactive) | > 100 µM (inactive) | > 100 µM (inactive) | > 100 µM (inactive) | > 100 | > 100 µM (inactive) | > 100 µM (inactive) | > 100 µM (inactive) | > 100 µM (inactive) | > 100 µM (inactive) |
| N#CC(c1cc(Cl)ncn1)c1nc2ccccc2s1 (centres undefined) | 3.77 µM (inactive) | 14.1 µM (inactive) | 6.03 µM (inactive) | 16.4 µM (inactive) | 7.01 µM (inactive) | 5.56 µM (inactive) | 5.93 µM (inactive) | 18.3 µM (inactive) | 5.04 µM (inactive) | 2.61 µM (inactive) | 19.3 µM (inactive) | 4.62 µM (inactive) | – | 3.74 | – | – | 16.1 µM (inactive) | – | – |
